In paper PMC8692993, “PPARα and PPARγ activation is associated with pleural mesothelioma invasion but therapeutic inhibition is ineffective” (iScience, 2021):

Experiments:
[1] = target: T1, PPARδ (Homo sapiens, UniProt Q03181); test: HG5LN reporter cell assay, PPARδ; format: cell-based; conditions: HG5LN PPARδ reporter cells
T1 construct: expressed in transfected cells; host or cells: HG5LN (HeLa-derived, GAL4RE-luciferase)
T1 sequence (Q03181 211-439 limits assumed): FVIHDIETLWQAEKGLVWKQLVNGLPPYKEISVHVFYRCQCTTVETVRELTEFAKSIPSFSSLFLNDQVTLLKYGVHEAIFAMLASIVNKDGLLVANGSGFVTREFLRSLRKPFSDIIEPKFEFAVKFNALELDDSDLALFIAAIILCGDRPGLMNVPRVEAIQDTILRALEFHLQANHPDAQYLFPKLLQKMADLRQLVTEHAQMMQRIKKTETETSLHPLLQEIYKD

[2] = Mouse pharmacokinetic study, plasma exposure after IP dosing; format: in vivo, BALB/c mice; conditions: IP 10 mg/kg; for Cmax / Plasma AUC0–24 h: female BALB/c mice
Procedure: Pharmacokinetic animal studies were conducted using established procedures in accordance with the Australian Code of Practice for the Care and Use of Animals for Scientific Purposes, and the study protocols were reviewed and approved by the Monash Institute of Pharmaceutical Sciences Animal Ethics Committee. The systemic exposure of GW6471 was studied in non-fasted female BALB/c mice (5 - 8 weeks) weighing 15.2–22.6 g. Mice had access to food and water ad libitum throughout the pre- and post-dose sampling period. GW6471 (10 mg/kg) was dosed to all mice via a single intraperitoneal (IP) injection (5 mL/kg). For the ABT pre-treated group, ABT was pre-dosed to animals at 50 mg/kg via IP injection (5 mL/kg) 2 h prior to administration of GW6471. Following IP administration of GW6471, blood samples were collected up to 24 h at indicated time points (n = 3 mice per time point) with a maximum of three samples from each mouse. Blood samples were collected via submandibular bleed (approximately 120 μL) into polypropylene Eppendorf tubes containing heparin as anticoagulant and stabilisation cocktail (containing the protease inhibitor cocktail Complete® and KF) to minimise the potential for ex vivo compound degradation in blood/plasma samples. Once collected, blood samples were centrifuged immediately, supernatant plasma was removed, and stored at−80°C until analysis by liquid chromatography-mass spectrometry (LC–MS). The plasma concentration versus time profile was defined by the average plasma concentration at each sample time, and PK parameters were calculated using non-compartmental methods (PKSolver Version 2.0).
Compound quantification was performed using a Xevo G2 QTOF (in vitro metabolic stability) using positive electrospray ionisation under MS^E mode or a Waters Xevo TQD (mouse exposure) mass spectrometer using positive electrospray ionisation multiple-reaction monitoring mode. Compounds were eluted using an acetonitrile-water/0.05% formic acid gradient at a flow rate of 0.4 mL/min operating over a 4 min cycle on a Waters Acquity UPLC using a Supelco Ascentis Express RP C8 column (50 × 2.1 mm, 2.7 μm). Extraction was performed by precipitation using acetonitrile (1:1 volume ratio for microsomes and 2:1 volume ratio for plasma samples) followed by centrifugation. Compound concentrations were quantified against calibration standards prepared in an appropriate matrix to match the test samples (e.g. plasma or microsomes).
ABT Formulation: On the evening prior to dosing, ABT was dissolved in a 0.9% (w/v) saline using vortexing and sonicating, resulting in a colourless solution. The nominal concentration of ABT in the formulation was 10 mg/mL. GW6471 Formulation: The final drug contains 40% final volume of PEG400 (Kollisolv PEG E 400, Sigma Aldrich), and 60% final volume of Solutol HS-15 (Kolliphor HS-15, Sigma Aldrich). Solutol is previously mixed in a saline solution (12.5% concentration). On the day of dosing, the solid GW6471 was first dissolved in PEG400by thoroughly vortexing and sonicating for 5 min. Then, the saline solution containing Solutol HS-15 12.5% was added. Again, the formulation was then thoroughly vortexed and sonicated to produce a hazy pale yellow suspension with an apparent pH of 3.4. The nominal concentration of GW6471 in the formulation was 2 mg/mL. […] The dose administered to each mouse was calculated on the basis of the mouse body weight (determined prior to dosing).

[3] = test system: AB1; test: MTT cell metabolic activity assay, AB1; format: cell-based, mouse; conditions: AB1, 48 h, 0.391-100 μM; effect at higher micromolar concentrations
Procedure: Cells were harvested and seeded in 96-flat well plates (Corning) at a density of 5 x 10^4 cells/mL overnight. Media was removed and 100 μL media with GW6471 or GW9662 at indicated concentrations was added to each well. Cell viability and toxicity were measured at 48 h. Cells were incubated with 50 μL of a 2 mg/mL solution of (3-(4,5-dimethyl-thiazole-2-yl)-2,5-[…] tetrazolium (MTT, Sigma-Aldrich) in PBS for 4 h and then exposed to 100 μL dimethyl sulfoxide (DMSO; Sigma-Aldrich). Cell viability was measured by absorption at 570 nm in a microplate spectrophotometer (Spectromax 250 plate reader). Results are shown as relative cell viability.

[4] = ABT 50 mg/kg IP 2 h before (ABT + GW6471)

CCC(=O)NC[C@H](Cc1ccc(OCCc2nc(-c3ccccc3)oc2C)cc1)N/C(C)=C\C(=O)c1ccc(C(F)(F)F)cc1 [GW6471]
Effect on PPARδ in reporter cell assay [1]: no effect | Increase of plasma concentration with ABT pre-treatment (based on AUC and Cmax) ([2]; ABT pre-treatment versus none): approximately 3 fold | Cmax [2, 4]: 3.6 µM | Plasma AUC0–24 h [2, 4]: 31.4 h∗μM | Cmax ([2]; without ABT): 1.18 µM | Plasma AUC0–24 h ([2]; without ABT): 9.81 h∗μM | Cell viability (MTT) [3]: lowered viability
